Measurements: patent US12377069B2, “Compounds, compositions, methods of using, and methods for preparing compounds” (UNIVERSITY OF LOUISVILLE RESEARCH FOUNDATION, INC., priority 2018, dated 2025)

Legend:
[1] = test system: C57BL/6 mice; experiment: LPS-induced peritonitis mouse model; format: in vivo; settings: 20 mg/kg; LPS 2 mg/kg i.p.; 4 h post LPS
Experimental: FIG. 1: UAS03 is a potent anti-inflammatory structural analogue of UroA and induces tight junction proteins. (A) Chemical structures of UroA, UAS03. UroA/UAS03 stability was examined in the presence of gastric pH 2.0 and digestive enzymes. UroA and UAS03 (0.2 mg/ml) were incubated with digestive enzymes (esterases and proteases, 100 U/ml) for 12 h at 37° C. and compound levels were quantified. (B) BMDMs were stimulated with LPS (50 ng/ml) without or with UroA (blue line)/UAS03 (purple line) (0.1, 1, 10, 25 and 50 μM) for 6 hours. IL-6 and TNF-α levels in supernatants were measured. (C) C57BL/6 mice (n=3-4) were pretreated with UroA (20 mg/kg) and UAS03 (20 mg/kg). After 4 hours, LPS (2 mg/kg) was injected intraperitoneally. Post 4 h of LPS administration, serum levels of IL-6 and TNF-α was measured. […] (G) The fold changes in mRNA levels of claudin 4 (Cldn4), occludin (Ocln) and Zona occludens 1 (ZO1) in HT29 cells were determined by RT PCR method. (H) UroA/UAS03 induced protein expression of Cldn4, Ocln and ZO1 in HT29 cells were determined by immunoblots and quantified by Image J software. […] The green intensity (n=15-20 cell membrane regions) was measured. […] The protein lysates were prepared from colon scrapes and subjected to immunoblots and detected the expression of the (J) Nrf2, HO1, Cldn4 and (K) AhR using appropriate antibodies as described in methods. […]

[2] = test system: Nrf2; experiment: Nrf2 expression, nuclear translocation and target genes; format: cell-based, human; settings: for NQO1 expression in HT29 cells: 50 μM; for Nrf2 mRNA and protein levels / Nrf2 nuclear translocation: HT29, 50 μM; for Nrf2 nuclear translocation: 6 h
Experimental: Real time PCR: Total RNA was isolated from cells/tissue using Maxwell® 16 LEV simplyRNA tissue kit (Promega) and reverse transcribed with TaqManC Reverse transcription Kit (Applied Biosystems, CA, USA). The transcribed cDNA (after dilution) was mixed with 100 nM gene specific primers (Real time primers LLC) and 1×SYBR green reaction mix (Power SYBR® Green PCR Master Mix; Applied Biosystems, CA, USA). Changes in gene expression was analyzed using CFX96™ Real-Time System (Bio Rad) and fold change in expression was calculated using 2^ΔΔCT method using GAPDH/0-actin as house keeping gene and normalized with untreated control.
Immunoblots (Western blots): The total protein lysates were collected either from colon tissue/cells using radioimmunoprecipitation assay (RIPA) buffer (Sigma-Aldrich, USA) and quantified using BCA protein quantification kit (Thermo Scientific) as per instructional manual. Total protein (20-50 μg) of was resolved on NuPAGE™ 4-12% Bis-Tris gel (Novex Life technologies) and transferred to polyvinylidene difluoride membrane (0.22 μm pore; Millipore, USA). After blocking with 5% (w/v) skim milk powder (containing 1×TBS) for 1 h, the membrane was then incubated with respective antibodies at 4° C. overnight (dilutions of respective antibodies is given in Table A1). Next day, respective secondary antibody conjugated with Horseradish peroxidase were probed and the chemiluminescent substrate was used to detect the protein bands (ImageQuant LAS 4000). Densitometry analysis of bands were done using ImageJ software. Antibodies for Cldn4, Ocln, Cldn1, Cyp1A1, AhR, HO1, NQO1, Keap1, β-actin and Lamin B were purchased from Santa Cruz Biotechnologies (USA) and Nrf2 from Novus Biologicals (USA).
Confocal Imaging: HT29 or CaCo2 or BMDM cells (50,000 cells/well) were plated on to 8-well chambered slides (154534PK; ThermoFisher Scientific) allowed them to grow overnight. The cells were induced with vehicle (0.01% DMSO) or UroA (50 μM) or UAS03 (50 μM) for desired time points and fixed with cold methonol. The AhR or Nrf2 or Cldn4 stained with respective antibodies (1:200 dilution) followed by fluorecently labelled (Alexa flour 594 for AhR and Alexa flour 488 for Nrf2 and Cldn4) secondary ab (1:500 dilution; ThermoFisher Scientific). The nucleus was stained with DAPI (Sigma Aldrich). The confocal images were captured using Nikon AIR confocal microscope using 60× magnification lense with appropriate laser channels.

Row | Compound | LPS-induced increase in serum IL-6 and TNF-α levels [1] | NQO1 expression in HT29 cells [2] | Nrf2 mRNA and protein levels [2] | Nrf2 nuclear translocation [2]
1 | Oc1ccc2c(c1)COc1cc(O)ccc1-2 [UAS03, 6H-benzo[c]chromene-3,8-diol] | reduced | induced NQO1 expression | upregulated Nrf2 | induced its nuclear translocation
2 | O=c1oc2cc(O)ccc2c2ccc(O)cc12 [UroA, 3,8-dihydroxy-6H-dibenzo[b,d]pyran-6-one] | reduced | induced NQO1 expression | upregulated Nrf2 | induced its nuclear translocation
